# Test results taken from patent US20150011569A1, “NOVEL P13K p110 INHIBITORS AND METHODS OF USE THEREOF” (PHILADELPHIA HEALTH & EDUCATION CORPORATION d/b/a Drexel …, priority 2011, published 2015).
# pIC50: −log10 of the molar value.
# How the values were obtained:
# [1] = tested on: influenza virus; assay: In vitro anti-viral assay in A549 cells (plaque assay, viral mRNA); type: cell-based
# [2] = tested on: virulent influenza virus strain; design: species or system mice; settings: mouse, in vivo
# [3] = biological target: T1, PI3K p110β (Homo sapiens, UniProt P42338); assay: PI3K isoform inhibition in vitro, p110β; type: biochemical; settings: class I PI3K isoform β
# T1 construct: purchased Reaction Biology Corporation (RBC) Malvern, Pa
# T1 sequence (P42338 whole entry, canonical isoform): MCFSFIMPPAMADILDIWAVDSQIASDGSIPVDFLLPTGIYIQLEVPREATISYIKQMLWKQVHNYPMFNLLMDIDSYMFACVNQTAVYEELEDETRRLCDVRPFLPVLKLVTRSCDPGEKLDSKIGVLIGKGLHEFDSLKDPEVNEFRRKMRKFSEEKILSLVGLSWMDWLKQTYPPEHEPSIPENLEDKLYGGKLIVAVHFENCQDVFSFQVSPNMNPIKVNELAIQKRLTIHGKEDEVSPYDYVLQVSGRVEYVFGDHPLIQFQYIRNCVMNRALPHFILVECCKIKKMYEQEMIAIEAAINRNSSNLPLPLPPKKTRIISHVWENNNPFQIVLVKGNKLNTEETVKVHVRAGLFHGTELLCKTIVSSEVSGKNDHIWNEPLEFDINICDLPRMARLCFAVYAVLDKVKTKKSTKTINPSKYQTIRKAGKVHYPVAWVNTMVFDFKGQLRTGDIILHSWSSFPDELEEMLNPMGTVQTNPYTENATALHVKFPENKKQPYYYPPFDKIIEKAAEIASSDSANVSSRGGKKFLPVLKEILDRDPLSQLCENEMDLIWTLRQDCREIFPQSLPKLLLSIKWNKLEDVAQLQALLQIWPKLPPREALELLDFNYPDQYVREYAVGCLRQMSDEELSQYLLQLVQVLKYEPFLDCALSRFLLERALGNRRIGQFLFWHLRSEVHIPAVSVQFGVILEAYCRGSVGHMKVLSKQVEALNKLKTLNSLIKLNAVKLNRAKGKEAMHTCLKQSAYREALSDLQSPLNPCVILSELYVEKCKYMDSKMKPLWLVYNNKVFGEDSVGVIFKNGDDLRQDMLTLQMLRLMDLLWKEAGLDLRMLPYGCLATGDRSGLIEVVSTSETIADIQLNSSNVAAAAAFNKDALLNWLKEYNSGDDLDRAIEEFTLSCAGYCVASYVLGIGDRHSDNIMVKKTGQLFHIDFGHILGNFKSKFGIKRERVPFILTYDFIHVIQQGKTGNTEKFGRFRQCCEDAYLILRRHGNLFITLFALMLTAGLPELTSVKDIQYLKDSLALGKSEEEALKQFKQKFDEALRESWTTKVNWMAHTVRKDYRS
# T1 sequence (P27986 whole entry partner, canonical isoform): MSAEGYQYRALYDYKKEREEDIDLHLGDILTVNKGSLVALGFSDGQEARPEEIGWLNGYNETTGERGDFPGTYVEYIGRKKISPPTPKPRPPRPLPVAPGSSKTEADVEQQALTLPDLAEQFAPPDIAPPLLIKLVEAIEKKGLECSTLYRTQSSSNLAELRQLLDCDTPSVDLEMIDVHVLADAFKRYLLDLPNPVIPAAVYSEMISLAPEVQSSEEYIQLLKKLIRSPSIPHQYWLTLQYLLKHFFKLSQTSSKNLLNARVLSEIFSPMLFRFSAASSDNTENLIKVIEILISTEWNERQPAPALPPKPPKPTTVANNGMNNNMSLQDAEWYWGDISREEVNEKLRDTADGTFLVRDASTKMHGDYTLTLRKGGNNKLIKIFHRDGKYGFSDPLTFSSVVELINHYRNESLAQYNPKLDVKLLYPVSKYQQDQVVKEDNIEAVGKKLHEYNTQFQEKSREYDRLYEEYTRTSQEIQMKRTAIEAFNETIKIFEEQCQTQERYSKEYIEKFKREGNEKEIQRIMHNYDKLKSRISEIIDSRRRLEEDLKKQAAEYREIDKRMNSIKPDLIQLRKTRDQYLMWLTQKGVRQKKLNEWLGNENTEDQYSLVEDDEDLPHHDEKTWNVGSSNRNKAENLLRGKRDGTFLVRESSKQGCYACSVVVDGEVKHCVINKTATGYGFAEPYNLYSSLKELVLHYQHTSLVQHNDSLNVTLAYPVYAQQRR
# Source text: (§1) A PI3K assay can be used to evaluate the activity of the prototype molecule. Reaction Biology Corporation (RBC) Malvern, Pa. offers Class I PI3Ks (PI3Kα, PI3Kβ, PI3Kγ, and PI3Kδ). The PIP3 product is detected by displacement of biotin-PIP3 from an energy transfer complex consisting of Europium labeled anti-GST monoclonal antibody, a GST-tagged pleckstrin homology (PH) domain, biotinylated PIP3 and Streptavidin-Allophycocyanin (APC). Excitation of Europium in the complex results in an energy transfer to the APC and a fluorescent emission at 665 nm. The PIP3 product formed displaces biotin-PIP3 from the complex resulting in a loss of energy transfer and thus a decrease in signal.
# [4] = biological target: T2, PI3K p110δ (Homo sapiens, UniProt O00329); assay: PI3K isoform inhibition in vitro, p110δ; type: biochemical; settings: class I PI3K isoform δ
# T2 construct: purchased Reaction Biology Corporation (RBC) Malvern, Pa
# T2 sequence (O00329 whole entry, canonical isoform): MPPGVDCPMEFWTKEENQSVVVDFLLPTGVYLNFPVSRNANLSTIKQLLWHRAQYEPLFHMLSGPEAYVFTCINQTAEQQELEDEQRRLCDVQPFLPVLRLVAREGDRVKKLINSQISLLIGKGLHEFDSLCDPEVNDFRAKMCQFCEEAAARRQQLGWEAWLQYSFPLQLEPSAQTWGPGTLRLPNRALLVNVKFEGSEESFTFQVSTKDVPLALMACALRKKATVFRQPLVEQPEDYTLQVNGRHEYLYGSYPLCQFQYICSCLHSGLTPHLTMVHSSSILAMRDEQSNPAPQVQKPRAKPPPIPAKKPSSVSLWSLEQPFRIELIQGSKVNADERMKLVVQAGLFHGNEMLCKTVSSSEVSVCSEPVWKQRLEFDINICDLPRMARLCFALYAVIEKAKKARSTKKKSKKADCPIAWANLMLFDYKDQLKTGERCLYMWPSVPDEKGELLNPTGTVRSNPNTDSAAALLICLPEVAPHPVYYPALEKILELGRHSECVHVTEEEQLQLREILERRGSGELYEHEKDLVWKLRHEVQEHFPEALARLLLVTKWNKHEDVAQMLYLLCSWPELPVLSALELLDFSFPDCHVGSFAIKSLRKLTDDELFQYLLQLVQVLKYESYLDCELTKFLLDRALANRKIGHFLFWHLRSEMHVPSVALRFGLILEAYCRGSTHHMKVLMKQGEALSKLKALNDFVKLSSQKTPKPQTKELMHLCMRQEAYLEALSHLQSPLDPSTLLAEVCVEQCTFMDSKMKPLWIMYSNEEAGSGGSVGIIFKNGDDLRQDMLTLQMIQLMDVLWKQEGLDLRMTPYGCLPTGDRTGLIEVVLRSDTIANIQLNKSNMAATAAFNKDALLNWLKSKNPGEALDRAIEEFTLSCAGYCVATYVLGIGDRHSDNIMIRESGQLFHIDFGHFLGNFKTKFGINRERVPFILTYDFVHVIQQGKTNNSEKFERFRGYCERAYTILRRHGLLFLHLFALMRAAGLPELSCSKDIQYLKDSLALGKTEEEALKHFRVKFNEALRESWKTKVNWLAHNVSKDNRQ
# T2 sequence (P27986 whole entry partner, canonical isoform): as the sequence (P27986 whole entry partner, canonical isoform) above
# Source text: as §1
# [5] = biological target: T3, PI3K p110γ (Homo sapiens, UniProt P48736); assay: PI3K isoform inhibition in vitro, p110γ; type: biochemical; settings: class I PI3K isoform γ
# T3 construct: purchased Reaction Biology Corporation (RBC) Malvern, Pa
# T3 sequence (P48736 whole entry, canonical isoform): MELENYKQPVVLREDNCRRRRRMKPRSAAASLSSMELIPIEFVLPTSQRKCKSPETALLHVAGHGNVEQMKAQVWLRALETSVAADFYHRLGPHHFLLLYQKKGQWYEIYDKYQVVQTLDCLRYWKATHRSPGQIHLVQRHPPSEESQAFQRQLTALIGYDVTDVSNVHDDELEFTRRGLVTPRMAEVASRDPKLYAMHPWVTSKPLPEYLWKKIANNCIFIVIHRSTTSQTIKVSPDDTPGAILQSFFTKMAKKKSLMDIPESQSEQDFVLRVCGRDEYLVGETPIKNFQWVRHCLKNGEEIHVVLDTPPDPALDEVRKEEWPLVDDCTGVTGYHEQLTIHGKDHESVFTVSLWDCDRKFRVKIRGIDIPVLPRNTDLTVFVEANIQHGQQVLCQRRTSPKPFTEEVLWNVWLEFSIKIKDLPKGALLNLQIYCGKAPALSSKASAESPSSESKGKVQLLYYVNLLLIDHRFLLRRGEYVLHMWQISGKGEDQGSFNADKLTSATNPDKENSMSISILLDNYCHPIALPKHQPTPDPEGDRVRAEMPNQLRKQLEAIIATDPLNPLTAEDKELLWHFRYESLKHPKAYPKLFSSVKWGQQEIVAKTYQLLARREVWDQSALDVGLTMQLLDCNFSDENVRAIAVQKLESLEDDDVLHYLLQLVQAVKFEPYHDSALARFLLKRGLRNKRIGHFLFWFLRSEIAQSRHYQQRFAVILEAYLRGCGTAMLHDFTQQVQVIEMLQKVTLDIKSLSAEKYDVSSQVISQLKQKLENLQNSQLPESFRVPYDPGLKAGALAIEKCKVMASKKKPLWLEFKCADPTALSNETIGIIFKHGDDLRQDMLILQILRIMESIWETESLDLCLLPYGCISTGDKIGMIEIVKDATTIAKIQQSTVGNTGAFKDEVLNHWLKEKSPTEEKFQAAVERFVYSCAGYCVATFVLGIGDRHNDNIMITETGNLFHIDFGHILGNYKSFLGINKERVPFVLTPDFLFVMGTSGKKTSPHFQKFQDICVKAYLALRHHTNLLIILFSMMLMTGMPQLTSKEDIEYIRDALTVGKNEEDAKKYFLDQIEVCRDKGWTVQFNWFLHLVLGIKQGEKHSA
# Source text: as §1
# [6] = biological target: T4, PI3K p110α (Homo sapiens, UniProt P42336); assay: PI3K isoform inhibition in vitro, p110α; type: biochemical; settings: class I PI3K isoform α
# T4 construct: purchased Reaction Biology Corporation (RBC) Malvern, Pa
# T4 sequence (P42336 whole entry, canonical isoform): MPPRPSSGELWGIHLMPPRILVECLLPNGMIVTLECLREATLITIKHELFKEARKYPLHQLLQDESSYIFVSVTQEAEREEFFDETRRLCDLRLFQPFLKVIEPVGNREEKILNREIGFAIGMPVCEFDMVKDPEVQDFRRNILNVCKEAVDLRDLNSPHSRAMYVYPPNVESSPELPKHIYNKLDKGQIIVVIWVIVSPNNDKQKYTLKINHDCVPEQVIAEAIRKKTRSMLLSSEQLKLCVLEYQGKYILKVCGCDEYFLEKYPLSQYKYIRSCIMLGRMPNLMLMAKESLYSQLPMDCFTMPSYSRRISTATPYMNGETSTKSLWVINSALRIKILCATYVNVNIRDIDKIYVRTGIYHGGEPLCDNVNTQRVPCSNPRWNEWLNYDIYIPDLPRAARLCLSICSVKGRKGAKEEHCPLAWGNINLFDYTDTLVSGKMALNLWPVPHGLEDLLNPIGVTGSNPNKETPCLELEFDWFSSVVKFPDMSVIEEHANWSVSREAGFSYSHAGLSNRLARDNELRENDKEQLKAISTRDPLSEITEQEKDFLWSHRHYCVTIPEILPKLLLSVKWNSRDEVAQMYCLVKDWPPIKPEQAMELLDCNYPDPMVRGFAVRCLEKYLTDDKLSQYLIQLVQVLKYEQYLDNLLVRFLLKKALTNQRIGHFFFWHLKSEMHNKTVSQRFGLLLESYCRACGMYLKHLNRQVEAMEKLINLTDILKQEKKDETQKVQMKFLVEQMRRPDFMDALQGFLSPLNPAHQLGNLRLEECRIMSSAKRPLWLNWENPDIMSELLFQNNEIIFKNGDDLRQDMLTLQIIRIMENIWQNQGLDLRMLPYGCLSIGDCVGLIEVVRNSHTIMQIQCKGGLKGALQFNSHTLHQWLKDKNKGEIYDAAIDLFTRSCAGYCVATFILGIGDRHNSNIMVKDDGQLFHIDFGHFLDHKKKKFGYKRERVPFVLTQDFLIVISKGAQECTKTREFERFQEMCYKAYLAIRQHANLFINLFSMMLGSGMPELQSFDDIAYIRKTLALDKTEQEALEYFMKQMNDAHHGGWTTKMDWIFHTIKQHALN
# T4 sequence (P27986 whole entry partner, canonical isoform): as the sequence (P27986 whole entry partner, canonical isoform) above
# Source text: as §1
Structure (SMILES),viral replication in A549 lung epithelial cells [1],protection from lethal challenge [2],pIC50 [3],pIC50 [4],pIC50 [5],pIC50 [6]
Cc1ccccc1-n1c(Cn2cnc3c(N)ncnc32)nc2cccc(C)c2c1=O [IC87114],decreased,protected animals from lethal challenge,–,–,–,–
"Cc1ccccc1-c1nc2ncccc2cc1Cn1cnc2c(N)ncnc21 [compound 7b, 9-((2-(2-methylphenyl)-1,8-naphthyridin-3-yl)methyl)-9H-purin-6-amine]",–,–,< 4.00,5.89,4.40,< 4.00
